19 compounds from ChEMBL document CHEMBL5214926, “Recent contribution of medicinally active 2-aminothiophenes: A privileged scaffold for drug discovery” (Eur J Med Chem, 2022) can be followed below.

For data set [1], the system named is Enterococcus faecalis. The data set can be described thus: Antibacterial activity against Enterococcus faecalis assessed as bacterial growth inhibition. The data set is classed as functional.
Data set [2] deals with Staphylococcus coagulans. The data set can be described thus: Antimicrobial activity against Staphylococcus coagulans assessed as microbial growth inhibition incubated for 24 hrs by disc diffusion assay. The data set is classed as functional.
In data set [3] the test system is Heyndrickxia coagulans. The data set can be described thus: Antibacterial activity against Bacillus coagulans assessed as bacterial growth inhibition. In kind it is functional.
For data set [4], the system named is Epidermophyton floccosum. The data set can be described thus: Antifungal activity against Epidermophyton floccosum assessed as fungal growth inhibition incubated for 7 days by spectrophotometry. The settings on record: 168 h, time 7 day. The data set is classed as functional.
Data set [5] has as its system Trichophyton tonsurans. The data set can be described thus: Antifungal activity against Trichophyton tonsurans 700 assessed as fungal growth inhibition by spectrophotometry. The data set is classed as functional.
The test system of data set [6] is Candida parapsilosis. The data set can be described thus: Antifungal activity against Candida parapsilosis ATCC 22019 assessed as fungal growth inhibition by spectrophotometry. The settings on record: Lodderomyces parapsilosis. In kind it is functional.
In data set [7] the test system is Trichophyton mentagrophytes. The data set can be described thus: Antifungal activity against Trichophyton mentagrophytes 5431 assessed as fungal growth inhibition by spectrophotometry. The data set is classed as functional.
The subject of data set [8] is Trichophyton mentagrophytes. The data set can be described thus: Antifungal activity against Trichophyton mentagrophytes 5432 assessed as fungal growth inhibition by spectrophotometry. In kind it is functional.
The test system of data set [9] is Epidermophyton floccosum. The data set can be described thus: Antifungal activity against Epidermophyton floccosum 6754 assessed as fungal growth inhibition by spectrophotometry. In kind it is functional.
The test system of data set [10] is Epidermophyton floccosum. The data set can be described thus: Antifungal activity against Epidermophyton floccosum 6999 assessed as fungal growth inhibition by spectrophotometry. The data set is classed as functional.
The subject of data set [11] is Trichophyton rubrum. The data set can be described thus: Antifungal activity against Trichophyton rubrum 6753 assessed as fungal growth inhibition by spectrophotometry. In kind it is functional.
Data set [12] deals with Trichophyton tonsurans. The data set can be described thus: Antifungal activity against Trichophyton tonsurans 2822 assessed as fungal growth inhibition by spectrophotometry. In kind it is functional.
Data set [13] relates to MCF7. The data set can be described thus: Cytotoxicity against human MCF7 cells assessed as cell growth inhibition incubated for 48 hrs by MTT assay. The data set is classed as functional, cell-based. The settings on record: MCF7, 48 h.
Data set [14] has as its system HepG2. The data set can be described thus: Cytotoxicity against human HepG2 cells assessed as cell growth inhibition incubated for 48 hrs by MTT assay. The settings on record: Homo sapiens, HepG2, 48 h. The data set is classed as functional, cell-based. For orientation: Tetrazolium assays rely on reduction of a dye to a coloured formazan, in cell work by metabolically active cells.

The nature of data set [15]: Cytotoxicity against human WI-38 cells assessed as cell growth inhibition incubated for 2 days by MTT assay. The data set is classed as toxicity, cell-based.
The subject of data set [16] is HepG2. The data set can be described thus: Cytotoxicity against human HepG2 cells assessed as cell growth inhibition incubated for 2 days by MTT assay. The data set is classed as functional, cell-based. As to conditions: HepG2, 48 h.
Data set [17] deals with MCF7. The data set can be described thus: Cytotoxicity against human MCF7 cells assessed as cell growth inhibition incubated for 2 days by MTT assay. In kind it is functional, cell-based. As to conditions: MCF7, 48 h.
Data set [18] has as its target T1, TGF-beta receptor type-1 (Homo sapiens, UniProt P36897).
T1 sequence (P36897 whole entry): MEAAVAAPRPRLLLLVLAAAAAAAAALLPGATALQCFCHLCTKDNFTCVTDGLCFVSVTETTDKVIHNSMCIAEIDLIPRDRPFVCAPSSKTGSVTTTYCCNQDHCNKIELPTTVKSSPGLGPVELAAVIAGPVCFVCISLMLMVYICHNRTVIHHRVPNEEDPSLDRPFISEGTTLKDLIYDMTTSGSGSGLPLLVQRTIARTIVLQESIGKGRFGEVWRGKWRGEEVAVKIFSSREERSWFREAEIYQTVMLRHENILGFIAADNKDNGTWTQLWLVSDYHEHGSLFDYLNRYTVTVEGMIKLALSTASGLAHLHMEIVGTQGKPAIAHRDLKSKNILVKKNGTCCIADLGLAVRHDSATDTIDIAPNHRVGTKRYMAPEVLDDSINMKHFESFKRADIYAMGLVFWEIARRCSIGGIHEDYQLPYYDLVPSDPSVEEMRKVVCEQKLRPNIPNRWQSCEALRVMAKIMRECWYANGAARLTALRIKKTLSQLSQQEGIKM
The data set can be described thus: Inhibition of human TGF-beta-R1 using TMB substrate incubated for 2.5 hrs by microplate reader analysis.

Data set [19] has as its system PC-3. The data set can be described thus: Cytotoxicity against human PC-3 cells assessed as cell growth inhibition incubated for 2 days by MTT assay. The data set is classed as functional, cell-based. The settings on record: PC-3, 48 h.
The subject of data set [20] is Staphylococcus aureus. The data set can be described thus: Inhibition of EtBr efflux in Staphylococcus aureus SA-1 assessed as reduction in fluorescence intensity at 50 uM measured after 30 mins by spectrophotometry relative to control. The data set is classed as functional. Also noted: scale not given: the % may be the effect or the level left.
Data set [21] has as its system K562. The data set can be described thus: Cytotoxicity against human K562 cells assessed as cell growth inhibition. The data set is classed as functional, cell-based.
Data set [22] relates to NCI-H1299. The data set can be described thus: Cytotoxicity against human NCI-H1299 cells assessed as cell growth inhibition incubated for 48 hrs by SRB assay. In kind it is functional, cell-based. The settings on record: NCI-H1299, 48 h. On the technique in general: In SRB staining, fixed cells bind dye roughly in proportion to their protein.
Data set [23] can be described thus: Inhibition of CaCC (unknown origin) current potentiation. More on the design: species or system Homo sapiens.
Data set [24] in a line: Inhibition of CaCC current potentiation in rat cerebellar Purkinje neurons by electrophysiological method.
Data set [25] concerns Perkinsus sp. The data set can be described thus: Antiprotozoal activity against Perkinsus sp. assessed as reduction in hypnospore viability at 500 uM measured after 48 hrs by microscopic analysis relative to control. In kind it is functional.
The test system of data set [26] is Candida tropicalis. The data set can be described thus: Antifungal activity against Candida tropicalis URM 4262 assessed as fungal growth inhibition around drug-chitosan film at 1.28 mg/ml. The data set is classed as functional. As to conditions: read-out: DIZ.
The species named for data set [27] is Homo sapiens. The data set can be described thus: Induction of CaCC (unknown origin) current potentiation at 10 uM relative to control.

The MIC is the least concentration at which growth counts as inhibited. Broadly, the IC50 is the concentration that inhibits the measured activity by half.

Values after ≈ are worked out from the molar mass of the structure shown. Values joined by “and” are separate entries in the source; they are usually repeats but may differ in a detail not shown here. Equal entries are not always repeated.

In the case of `N#Cc1c(NC(=O)c2cc(O)c(O)c(O)c2)sc2c1CCCC2`, the MIC in data set [1] worked out at 0.17 µg/mL (≈ 0.515 µM); in [2], 0.45 µM (≈ 0.149 µg/mL); in data set [3], 0.15 µg/mL (≈ 0.454 µM).
For the compound `N#Cc1ccsc1/N=C/c1ccc(Br)cc1`, the MIC is 101 µM (≈ 29.4 µg/mL) in data set [4]; 64 µg/mL (≈ 220 µM) in data set [5]; 128 µg/mL (≈ 440 µM) in data set [6]; 128 µg/mL (≈ 440 µM) in [7]; 1020 µg/mL (≈ 3520 µM) in data set [8]; 512 µg/mL (≈ 1760 µM) in data set [9]. Moreover, the values for the MIC in [10], in data set [11] and in [12] were 512 µg/mL (≈ 1760 µM), 32 µg/mL (≈ 110 µM) and 1020 µg/mL (≈ 3520 µM), respectively.
`CC(=O)c1ccc(Nc2c(C(C)=O)sc(N)c2C#N)cc1`: the IC50 in data set [13] was 91.5 µM; in data set [14], 88.5 µM.
Take `N#Cc1c(NC(=O)/C=C/c2ccc(O)cc2)sc2c1CCC2`: the IC50 at 2 days in data set [15] was determined as 236 µM. The IC50 in data set [16] came to 3.55 µM; in data set [17], 4.92 µM; in data set [18] it was 0.087 µM; in [19], 3.4 µM.
Take `CCCCCCCC(=O)N1CCc2c(sc(NC(=O)C(F)(F)F)c2C(=O)OCC)C1`: the Activity in data set [20] came to 85%.
Take `CCOC(=O)C1=C(Nc2cccc([N+](=O)[O-])c2)S/C(=C\c2ccc[nH]2)C1=O`: in [21], the IC50 is 87.2 µM.
In the case of `COc1ccc(/C=N/NCC(=O)Nc2sc3c(c2C#N)CCCC3)cc1`, the IC50 in data set [22] amounted to 18.5 µM.
As for `CCOC(=O)c1c(NC(=O)C(F)(F)F)sc2c1CCN(C(=O)CCCCCBr)C2`, the Activity in data set [20] came to 125%.
As to `N#Cc1c(NC(=O)CNc2onc3ncccc23)sc2c1CCCC2`, the IC50 in [22] was 18.4 µM.
Take `COC(=O)c1c(NC(=O)Cn2cc(CNC34CC5CC(CC(C5)C3)C4)nn2)sc2c1CCCC2`: the IC50 in data set [23] and in data set [24] was 1.6 µM in each case.
As to `N#Cc1ccsc1/N=C/c1ccccc1[N+](=O)[O-]`, the figures for the MIC in data set [6] and in [10] were 128 µg/mL (≈ 498 µM) and 32 µg/mL (≈ 124 µM), respectively.
`COc1ccc(OC)c(/C=C/C(=O)Nc2sc3c(c2C#N)CCC3)c1`: the IC50 at 2 days in data set [15] stood at 185 µM. Moreover, the IC50 in data set [16] was 2.7 µM; in data set [17], 3.2 µM; in data set [18], 0.09 µM and 0.087 µM; in data set [19] it was 1.35 µM.
With `N#Cc1ccsc1/N=C/c1ccccc1`, the MIC in data set [5] was 32 µg/mL (≈ 151 µM); in [8] it was 256 µg/mL (≈ 1210 µM); in [9], 512 µg/mL (≈ 2410 µM); in data set [10], 16 µg/mL (≈ 75.4 µM); in [12], 32 µg/mL (≈ 151 µM).
For `N#Cc1c(NC(=O)c2cc(O)c(O)c(O)c2)sc2c1CCC2`, the MIC in [1] is 0.25 µg/mL (≈ 0.79 µM); in [2], 0.32 µM (≈ 0.101 µg/mL); in data set [3], 0.1 µg/mL (≈ 0.316 µM).
`N#Cc1c(N)sc2c1CCCC2`: in data set [25], the Activity is 38%. In [26], the zone of inhibition at 1280 µg/mL is 1.5 mm.
On to `CC(=O)Nc1sc(C(C)=O)c(Nc2ccc(C(C)=O)cc2)c1C#N`, for which the IC50 in data set [13] was 64.6 µM; in data set [14] it was 66.2 µM.
For `CC(=O)c1ccc(Nc2c(C(C)=O)sc(NC(=O)CC#N)c2C#N)cc1`, in that order: 41.4 µM and 56.1 µM.
For `COC(=O)c1c(NC(=O)Cn2cc(CNC34CC5CC(CC(C5)C3)C4)nn2)sc2c1CCC(C(C)(C)C)C2` (centres undefined), in data set [27], the Activity was 35%.
Regarding `N#Cc1c(NC(=O)CNc2n[nH]c3ncccc23)sc2c1CCCC2`, the concentration for half-maximal inhibition (IC50) in data set [22] was determined as 0.0125 µM.
